According to publication PMC6409085, “Three odorant-binding proteins are involved in the behavioral response of Sogatella furcifera to rice plant volatiles” (PeerJ, 2019):

Key:
Assay in all cases: biochemical
Type in all cases: binding
SfurOBP11 = SfurOBP11 (Sogatella furcifera, UniProt V5T6E3); details: SfurOBP11; protein and 1-NPN both 2.0 µM; competitor 2-20 µM; read-out: IC50
Experimental: (§1) Thirty-six rice odorants ([He et al., 2014]; [Wang et al., 2017]) and 1-N-phenyl-naphthylamine (1-NPN) were purchased from Sigma-Aldrich (St Louis, MO, USA). These odorants and 1-NPN were dissolved in high-performance liquid chromatography (HPLC) purify grade methanol for 1.0 mM as work solution.
(§2) Fluorescence competitive binding assays were performed on Tecan Spark 10M (Tecan Group Ltd., Männedorf, Switzerland) with the F96 Black ELIAS Plate (Sangon) ([Khuhro et al., 2017]; [Liu et al., 2017]). The solutions were excited at 337 nm and emission spectra were recorded between 390 and 490 nm. First, to test the binding constants of 1-NPN to the SfurOBPs, a 2.0 µM solution of protein in 50 mM Tris-HCl (pH = 7.4) was titrated with 1 mM 1-NPN to achieve virous concentrations. Next, the competitive binding of each odorant was measured using the 1-NPN as fluorescent reporter and odorant as competitor. The concentrations of protein and 1-NPN were both 2.0 µM, the odorant added after protein and 1-NPN added into the well of ELIAS Plate for 2 min. The final concentrations of each competitor were 2, 4, 6, 8, 10, 12, 14, 16, 18 and 20 µM. After 2 min of odorant added, the fluorescence intensity was measured and recorded. The volume of mixed solution in each well was maintained at 250 µL. Each interaction was performed in triplicates.
(§3) GraphPad Prism 7.0 software (GraphPad Software, Inc., La Jolla, CA, USA) was used to calculated and generated the binding constants (K1−NPN) of 1-NPN to SfurOBPs and relative Scatchard plots ([Ban et al., 2003]; [Li et al., 2016]). Dissociation constant (Ki) of each odorant to SfurOBP was computed from the corresponding IC50 value (the half maximal inhibitory concentration), using the following equation: Ki=[IC50]/(1 + [1-NPN]/K1−NPN), where [1-NPN] is the free concentration of 1-NPN and K1−NPN is the dissociation constant of the complex protein/1-NPN.

SfurOBP2 = SfurOBP2 (Sogatella furcifera, UniProt V5T759); details: SfurOBP2; protein and 1-NPN both 2.0 µM; competitor 2-20 µM; read-out: IC50
Experimental: as §1, §2, §3

SfurOBP1 = SfurOBP1 (Sogatella furcifera, UniProt V5T8N5); details: SfurOBP1; protein and 1-NPN both 2.0 µM; competitor 2-20 µM; read-out: IC50
Experimental: as §1, §2, §3

SfurOBP3 = SfurOBP3 (Sogatella furcifera, UniProt V5T818); details: SfurOBP3; protein and 1-NPN both 2.0 µM; competitor 2-20 µM; read-out: IC50
Experimental: as §1, §2, §3

Measured: IC50

Chain of SfurOBP11 (V5T6E3 entry or part of it): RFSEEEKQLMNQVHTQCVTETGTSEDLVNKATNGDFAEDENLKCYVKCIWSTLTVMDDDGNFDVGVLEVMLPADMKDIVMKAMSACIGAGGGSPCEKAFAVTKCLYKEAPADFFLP
Chain of SfurOBP2 (V5T759 entry or part of it): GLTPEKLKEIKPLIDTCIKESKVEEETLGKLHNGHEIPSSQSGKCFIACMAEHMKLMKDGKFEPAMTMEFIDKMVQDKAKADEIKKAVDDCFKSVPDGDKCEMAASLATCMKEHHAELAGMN
Chain of SfurOBP1 (V5T8N5 entry or part of it): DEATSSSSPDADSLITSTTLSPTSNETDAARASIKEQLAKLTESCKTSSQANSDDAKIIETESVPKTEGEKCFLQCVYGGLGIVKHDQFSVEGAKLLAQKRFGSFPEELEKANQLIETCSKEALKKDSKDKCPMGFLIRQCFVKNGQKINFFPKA
Chain of SfurOBP3 (V5T818 entry or part of it): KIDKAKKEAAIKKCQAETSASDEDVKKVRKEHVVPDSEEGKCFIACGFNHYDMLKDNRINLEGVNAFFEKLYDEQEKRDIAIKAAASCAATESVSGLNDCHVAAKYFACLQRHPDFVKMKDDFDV

CC(C)COC(=O)CCCCC(=O)OCC(C)C [diisobutyl adipate]
> 20 µM: all assays above
